According to PMC4434909, “In vitro properties of designed antimicrobial peptides that exhibit potent antipneumococcal activity and produces synergism in combination with penicillin” (Scientific Reports, 2015):
Read-outs that look alike come from different tables or passages of the source. Where no end group is shown, it is not given here.

Key:
[1] = tested on: MRSA; assay type: cell-based, methicillin-resistant S. aureus
Excerpt: (§1) All bacterial strains were obtained from Department of Medical Microbiology, University of Malaya. Clinical isolates were previously obtained from University of Malaya Medical Centre and maintained in the laboratory. Sheep blood agar was used for pneumococcal cultivation purpose. Nutrient agar was used for cultivating E. coli ATCC 25922, S. aureus ATCC 25923, and P. aeruginosa ATCC 15442, Acinetobacter baumanii ATCC 15308, and one clinical isolate for each MRSA, E. cloacae, Citrobacter spp., and K. pneumoniae. For antimicrobial testing, Mueller-Hinton agar (MHA) and cationically-adjusted MHB (CAMHB) were prepared according to the Clinical and Laboratory Standard Institute guidelines. MHA for S. pneumoniae was supplemented with 5% (v/v) defibrinated sheep blood and 5% laked horse blood for CAMHB. All bacterial cultures were stored in multiple vials in brain heart infusion broth supplemented with 10% (v/v) glycerol at −80°C to avoid repeated freeze-thawed cycles on the cells. All freeze-stocked strains were passaged twice prior to experimentation.
(§2) Procedures were performed to determine the MIC of peptides according to the CLSI guidelines[21] against 60 pneumococcal isolates which consisted of 20 isolates each for PRSP, PISP, and PSSP. Strains were grown for 18–24 hrs at 37°C under 5% CO2. Direct suspension of the colonies were made in CAMHB and adjusted to OD625 0.08–0.1 which corresponds to 1 ~ 2 × 10^8 CFU/ml followed by serial ten-fold dilutions to give 1 × 10^6 CFU/ml. Fifty microliters of bacterial suspension was then aliquoted to 96-well round bottom microtiter plates containing equal volume of serially diluted peptides to give final concentrations of peptides encompassing the range of 1.96–250 μg/ml. […] The plates were incubated for 18–24 hrs at 37°C under 5% CO2. MIC was read as the concentration of peptide producing complete inhibition on the visible growth of the test organism. Results were pooled from three independent experiments. MIC range was defined as the range of concentrations where the peptides produce detectable antimicrobial activity. Effective percentage (EP) was the proportion of pneumococcal isolates inhibited within the MIC range. Since the isolates tested were obtained prior to 2008 where major revision in antibiotic susceptibility breakpoints were introduced, thus the pneumococci were defined according to the PEN susceptibility breakpoint (prior 2008) which corresponds to the PEN (oral penicillin V) breakpoint of the revised criteria.
(§3) The broad spectrum antibacterial activity of the peptides against a panel of eight clinically important bacteria was also determined, this includes S. aureus ATCC 25923, E. coli ATCC 25922, P. aeruginosa ATCC 15442, A. baumanii ATCC 15308, and one clinical isolate each for MRSA, E. cloacae, Citrobacter spp., and K. pneumoniae.

[2] = tested on: A. baumanii ATCC 15308; assay type: cell-based, Acinetobacter baumanii
Excerpt: as §1, §2, §3

[3] = tested on: NL20 cell line; assay: Cytotoxicity against human cell lines (CellTiter 96 AQueous); assay type: cell-based
Protocol: (§4) Both the NL20 human lung bronchial normal epithelial cell line and the A549 human lung alveolar adenocarcinoma epithelial cell line were used for cell cytotoxicity tests. Besides investigating the cytotoxicity of peptides, differences in cell viability between the two cell lines can be used to evaluate the cell line selectivity and to assess potential anticancer potential of the peptides. NL20 cell line was grown in Ham's F12 medium and A549 cell line was grown in Roswell Park Memorial Institute medium. Both media were supplemented with fetal bovine serum to 10% (v/v) as growth medium or 2% (v/v) as maintenance medium in cell cytotoxicity testing. The assay was performed as described by Lee et al.[26]. NL20 cells was seeded overnight at 3 × 10^4 cells/well in 96-well cell culture-treated flat bottom microtiter plate and treated with serial dilutions of peptide at a final concentration of 1.95–250 μg/ml. PEN was tested from 0.03–4 μg/ml, the same range used to classify the susceptibility of pneumococcal isolates in this study. Test using A549 cells followed the same procedures with 1 × 10^4 cells/well. Plates were incubated at 37°C under 5% CO2 for 24, 48, and 72 hrs. Cell viability was detected by using CellTiter 96® AQueous Non-Radioactive Cell Proliferation assay (Promega, USA) and the colorimetric changes were read with Glomax multidetection system (Promega, USA) at OD 490 nm. Results were pooled from three independent experiments and expressed as mean ± SD. […] Imax was the percentage of cell viable treated with peptides/PEN at the maximum concentration as defined throughout this study (all peptides 250 μg/ml, PEN 4 μg/ml).

[4] = tested on: A549 cell line; assay: as above; assay type: cell-based
Protocol: as §4

[5] = tested on: E. coli ATCC 25922; assay type: cell-based
Excerpt: as §1, §2, §3

[6] = tested on: Citrobacter spp.; assay type: cell-based; settings: Gram-negative, clinical isolate; broth microdilution, CAMHB, peptides 1.96–250 μg/ml
Excerpt: as §1, §2, §3

[7] = tested on: P. aeruginosa ATCC 15442; assay type: cell-based
Excerpt: as §1, §2, §3

[8] = tested on: S. aureus ATCC 25923; assay type: cell-based
Excerpt: as §1, §2, §3

[9] = tested on: multiple gram-positive and gram-negative bacteria; assay type: cell-based; settings: range: DM3 against seven bacteria; DM4 and DM5 apart from higher MICs against E. cloaceae, K. pneumoniae, S. aureus
Excerpt: as §1, §2, §3

[10] = Gram-positive, clinical isolate, broth microdilution, CAMHB, peptides 1.96–250 μg/ml
[11] = Gram-negative, broth microdilution, CAMHB, peptides 1.96–250 μg/ml
[12] = bound stated in text for 24, 48 and 72 hrs together
[13] = concentration reducing cell viability to 50%, 24 hrs, 2% FBS medium, OD 490 nm, mean ± SD of three independent experiments
[14] = concentration reducing cell viability to 50%, 48 hrs, 2% FBS medium, OD 490 nm, mean ± SD of three independent experiments
[15] = concentration reducing cell viability to 50%, 72 hrs, 2% FBS medium, OD 490 nm, mean ± SD of three independent experiments
[16] = percentage cell viability at the highest concentration (peptides 250 μg/ml; PEN 4 μg/ml), 24 hrs, mean ± SD
[17] = percentage cell viability at the highest concentration (peptides 250 μg/ml; PEN 4 μg/ml), 48 hrs, mean ± SD
[18] = percentage cell viability at the highest concentration (peptides 250 μg/ml; PEN 4 μg/ml), 72 hrs, mean ± SD
[19] = Gram-positive, broth microdilution, CAMHB, peptides 1.96–250 μg/ml

GLFDKWAWWRWRR-NH2 [DM1]
MIC, MRSA [1, 10]: 62.5 µg/mL
MIC, A. baumanii ATCC 15308 [2, 11]: 62.5 µg/mL
IC50 against NL20 cell line, over all time points [3, 12]: > 220 µg/mL
IC50, NL20 cell line, 24 hrs [3, 13]: 221.8 ± 7.8 µg/mL
IC50, NL20 cell line, 48 hrs [3, 14]: 235.7 ± 12.9 µg/mL
IC50, NL20 cell line, 72 hrs [3, 15]: 242.2 ± 7.3 µg/mL
Imax, NL20 cell line, 24 hrs [3, 16]: 35.3 ± 6.6%
Imax, NL20 cell line, 48 hrs [3, 17]: 42.2 ± 8.6%
Imax, NL20 cell line, 72 hrs [3, 18]: 45.9 ± 4.3%
IC50 against A549 cell line, over all time points [4, 12]: ≥ 195.0 µg/mL
IC50, A549 cell line, 24 hrs [4, 13]: 215.3 ± 19.7 µg/mL
IC50, A549 cell line, 48 hrs [4, 14]: 195.0 ± 25.2 µg/mL
IC50, A549 cell line, 72 hrs [4, 15]: >250 µg/mL
Imax, A549 cell line, 24 hrs [4, 16]: 38.6 ± 6.2%
Imax, A549 cell line, 48 hrs [4, 17]: 39.8 ± 7.7%
Imax, A549 cell line, 72 hrs [4, 18]: 66.2 ± 7.2%
MIC, E. coli ATCC 25922 [5, 11]: 62.5 µg/mL
MIC, Citrobacter spp. [6]: 31.3 µg/mL
MIC, P. aeruginosa ATCC 15442 [7, 11]: 125 µg/mL
MIC, S. aureus ATCC 25923 [8, 19]: 125 µg/mL

GLFDIWKKLRWRR-NH2 [DM5]
MIC, MRSA ([1]; methicillin-resistant): 62.5 µg/mL
MIC, A. baumanii ATCC 15308 ([2]; ATCC 15308): 31.3 µg/mL
Imax, NL20 cell line, 24 hrs [3]: 7.3 ± 2.4%
Imax, NL20 cell line, 48 hrs [3]: 8.3 ± 4.2%
Imax, NL20 cell line, 72 hrs [3]: 9.7 ± 5.4%
IC50, NL20 cell line, 24 hrs ([3]; 24 h): 179.2 ± 3.8 µg/mL
IC50 of NL20 cells higher than A549 cells by, 24 hrs ([3]; 24 h): 82.2 µg/mL
IC50, NL20 cell line, 48 hrs ([3]; 48 h): 188.2 ± 4.9 µg/mL
IC50 of NL20 cells higher than A549 cells by, 48 hrs ([3]; 48 h): 81.9 µg/mL
IC50, NL20 cell line, 72 hrs ([3]; 72 h): 191.7 ± 3.5 µg/mL
IC50 of NL20 cells higher than A549 cells by, 72 hrs ([3]; 72 h): 90.0 µg/mL
IC50, A549 cell line, 24 hrs ([4]; 24 h): 97.0 ± 9.8 µg/mL
IC50, A549 cell line, 48 hrs ([4]; 48 h): 106.3 ± 15.7 µg/mL
IC50, A549 cell line, 72 hrs ([4]; 72 h): 101.7 ± 9.5 µg/mL
MIC, E. coli ATCC 25922 ([5]; ATCC 25922): 31.3 µg/mL
MIC, Citrobacter spp. [6]: 31.3 µg/mL
MIC, P. aeruginosa ATCC 15442 ([7]; ATCC 15442): 31.3 µg/mL
antibacterial MIC range over the bacterial panel [9]: 31.3 to 62.5 µg/mL
MIC, S. aureus ATCC 25923 ([8]; ATCC 25923): 125 µg/mL

GLFDIWAWWRWRR-NH2 [DM2]
MIC, MRSA ([1]; methicillin-resistant): 62.5 µg/mL
MIC, A. baumanii ATCC 15308 ([2]; ATCC 15308): 31.3 µg/mL
Imax, NL20 cell line, 24 hrs [3]: 64.3 ± 7.0%
Imax, NL20 cell line, 48 hrs [3]: 53.3 ± 9.1%
Imax, NL20 cell line, 72 hrs [3]: 46.8 ± 4.0%
IC50, NL20 cell line, 24 hrs ([3]; 24 h): >250 µg/mL
IC50, NL20 cell line, 48 hrs ([3]; 48 h): >250 µg/mL
IC50, NL20 cell line, 72 hrs ([3]; 72 h): 241.5 ± 9.0 µg/mL
IC50, A549 cell line, 24 hrs ([4]; 24 h): > 250 µg/mL
IC50, A549 cell line, 48 hrs ([4]; 48 h): 197.7 µg/mL
IC50, A549 cell line, 72 hrs ([4]; 72 h): 165.0 µg/mL
MIC, E. coli ATCC 25922 ([5]; ATCC 25922): 250 µg/mL
MIC, Citrobacter spp. [6]: 62.5 µg/mL
MIC, P. aeruginosa ATCC 15442 ([7]; ATCC 15442): >250 µg/mL
MIC, S. aureus ATCC 25923 ([8]; ATCC 25923): 31.3 µg/mL

GLFDIWKKWRWRR-NH2 [DM4]
MIC, MRSA [1, 10]: 62.5 µg/mL
MIC, A. baumanii ATCC 15308 [2, 11]: 31.3 µg/mL
IC50, NL20 cell line, 24 hrs [3, 13]: 160.2 ± 11.8 µg/mL
IC50, NL20 cell line, 48 hrs [3, 14]: 167.3 ± 5.9 µg/mL
IC50, NL20 cell line, 72 hrs [3, 15]: 205.0 ± 7.0 µg/mL
IC50 of NL20 cells higher than A549 cells by, 24 hrs ([3]; difference IC50 NL20 minus IC50 A549, 24 hrs): 66.9 µg/mL
IC50 of NL20 cells higher than A549 cells by, 48 hrs ([3]; difference IC50 NL20 minus IC50 A549, 48 hrs): 64.3 µg/mL
IC50 of NL20 cells higher than A549 cells by, 72 hrs ([3]; difference IC50 NL20 minus IC50 A549, 72 hrs): 97.5 µg/mL
Imax, NL20 cell line, 24 hrs [3, 16]: 6.9 ± 6.8%
Imax, NL20 cell line, 48 hrs [3, 17]: 5.9 ± 2.5%
Imax, NL20 cell line, 72 hrs [3, 18]: 30.2 ± 2.9%
IC50, A549 cell line, 24 hrs [4, 13]: 93.3 ± 5.1 µg/mL
IC50, A549 cell line, 48 hrs [4, 14]: 103.0 ± 17.5 µg/mL
IC50, A549 cell line, 72 hrs [4, 15]: 107.5 ± 16.3 µg/mL
Imax, A549 cell line, 24 hrs [4, 16]: 8.5 ± 3.8%
Imax, A549 cell line, 48 hrs [4, 17]: 8.9 ± 1.4%
MIC, E. coli ATCC 25922 [5, 11]: 62.5 µg/mL
MIC, Citrobacter spp. [6]: 31.3 µg/mL
MIC, P. aeruginosa ATCC 15442 [7, 11]: 31.3 µg/mL
antibacterial MIC range over the bacterial panel [9]: 31.3 to 62.5 µg/mL
MIC, S. aureus ATCC 25923 [8, 19]: 62.5 µg/mL

GLFDIWKWWRWRR-NH2 [DM3]
MIC, MRSA ([1]; methicillin-resistant): 7.81 µg/mL
MIC, A. baumanii ATCC 15308 ([2]; ATCC 15308): 15.63 µg/mL
Imax, NL20 cell line, 24 hrs [3]: 13.3 ± 2.1%
Imax, NL20 cell line, 48 hrs [3]: 24.0 ± 7.6%
Imax, NL20 cell line, 72 hrs [3]: 12.4 ± 4.5%
IC50, NL20 cell line, 24 hrs ([3]; 24 h): 68.5 ± 11.0 µg/mL
IC50, NL20 cell line, 48 hrs ([3]; 48 h): 91.5 ± 7.6 µg/mL
IC50, NL20 cell line, 72 hrs ([3]; 72 h): 112.2 ± 8.8 µg/mL
IC50, A549 cell line, 24 hrs ([4]; 24 h): 56.0 ± 9.3 µg/mL
IC50, A549 cell line, 48 hrs ([4]; 48 h): 80.0 ± 1.7 µg/mL
IC50, A549 cell line, 72 hrs ([4]; 72 h): 96.2 ± 4.4 µg/mL
MIC, E. coli ATCC 25922 ([5]; ATCC 25922): 62.5 µg/mL
MIC, Citrobacter spp. [6]: 15.63 µg/mL
MIC, P. aeruginosa ATCC 15442 ([7]; ATCC 15442): 125 µg/mL
antibacterial MIC range over the bacterial panel [9]: 7.81 to 62.5 µg/mL
MIC, S. aureus ATCC 25923 ([8]; ATCC 25923): 15.63 µg/mL
